From the NIST ThermoML archive (doi:10.1021/je101180r)
Numbers after ± are expanded uncertainties.

Conditions: Liquid, Ebulliometric method (Recirculating still)

vapor or sublimation pressure (402.57 K)	vapor or sublimation pressure (413.74 K)	SMILES	vapor or sublimation pressure (373.7 K)	vapor or sublimation pressure (384.96 K)
5.158 ± 0.11 kPa	8.041 ± 0.18 kPa	Cc1cccnc1N [2-amino-3-methylpyridine]	–	–
–	–	CN(C)c1ccccc1 [N,N-dimethylaniline]	5.158 ± 0.11 kPa	8.041 ± 0.18 kPa
